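Growth conditions: 96-well plates. Treatment: test compound, 48 hours, 5 concentrations. Analysis: linear interpolation between bracketing concentrations; unreached endpoints set to highest concentration. Definition used: TGI = concentration required for complete inhibition of growth.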
Legend:
Assay in all cases: inhibition of tumour cell growth, NCI panel, 48 h
OVCAR-5 ovarian = tested on: OVCAR-5 ovarian
CCRF-CEM leukemia = tested on: CCRF-CEM leukemia
NCI/ADR-RES ovarian = tested on: NCI/ADR-RES ovarian
UO-31 renal = tested on: UO-31 renal
OVCAR-4 ovarian = tested on: OVCAR-4 ovarian
OVCAR-3 ovarian = tested on: OVCAR-3 ovarian
OVCAR-8 ovarian = tested on: OVCAR-8 ovarian
MOLT-4 leukemia = tested on: MOLT-4 leukemia
SK-MEL-5 melanoma = tested on: SK-MEL-5 melanoma
786-0 renal = tested on: 786-0 renal
TK-10 renal = tested on: TK-10 renal
KM12 colon = tested on: KM12 colon
UACC-257 melanoma = tested on: UACC-257 melanoma
COLO 205 colon = tested on: COLO 205 colon
MDA-MB-435 = tested on: MDA-MB-435
HS 578T breast = tested on: HS 578T breast
MCF7 breast = tested on: MCF7 breast
SNB-75 CNS = tested on: SNB-75 CNS
LOX IMVI melanoma = tested on: LOX IMVI melanoma
HOP-62 NSCLC = tested on: HOP-62 NSCLC
MDA-N = tested on: MDA-N
A498 renal = tested on: A498 renal
SW-620 colon = tested on: SW-620 colon
HOP-92 NSCLC = tested on: HOP-92 NSCLC
HCT-116 colon = tested on: HCT-116 colon
SF-295 CNS = tested on: SF-295 CNS
HCT-15 colon = tested on: HCT-15 colon
SK-OV-3 ovarian = tested on: SK-OV-3 ovarian
BT-549 breast = tested on: BT-549 breast
CAKI-1 renal = tested on: CAKI-1 renal
U251 CNS = tested on: U251 CNS
UACC-62 melanoma = tested on: UACC-62 melanoma
HT29 colon = tested on: HT29 colon
K-562 leukemia = tested on: K-562 leukemia
SK-MEL-28 melanoma = tested on: SK-MEL-28 melanoma
SN12C renal = tested on: SN12C renal
DU-145 prostate = tested on: DU-145 prostate
NCI-H522 lung = tested on: NCI-H522 lung
SF-268 CNS = tested on: SF-268 CNS
NCI-H226 lung = tested on: NCI-H226 lung
HL-60(TB) leukemia = tested on: HL-60(TB) leukemia
M14 melanoma = tested on: M14 melanoma
SNB-19 CNS = tested on: SNB-19 CNS
NCI-H460 lung = tested on: NCI-H460 lung
IGROV1 ovarian = tested on: IGROV1 ovarian
SF-539 CNS = tested on: SF-539 CNS
MDA-MB-231 breast = tested on: MDA-MB-231 breast
PC-3 prostate = tested on: PC-3 prostate
MALME-3M melanoma = tested on: MALME-3M melanoma
EKVX NSCLC = tested on: EKVX NSCLC
NCI-H23 lung = tested on: NCI-H23 lung
ACHN renal = tested on: ACHN renal
HCC-2998 colon = tested on: HCC-2998 colon
A549 NSCLC = tested on: A549 NSCLC
SK-MEL-2 melanoma = tested on: SK-MEL-2 melanoma
RXF 393 renal = tested on: RXF 393 renal
RPMI-8226 leukemia = tested on: RPMI-8226 leukemia

Measured: TGI

Cc1cc2c(cc1Cl)Sc1n[nH]c(=O)n1S2(=O)=O
90.8 µM: A498 renal
not listed: SK-MEL-2 melanoma | RXF 393 renal | RPMI-8226 leukemia
> 100 µM: all other assays above

C[n+]1c(-c2ccc(/C=N/NC(=O)C(=O)N/N=C/c3ccc(-c4cn5ccccc5[n+]4C)cc3)cc2)cn2ccccc21
not listed: LOX IMVI melanoma | HCT-116 colon | SF-295 CNS | SK-MEL-28 melanoma | SF-268 CNS
> 100 µM: all other assays above
